These are literature values, as cited in patent US8193242B2 (XenoPort, Inc., priority 2005, dated 2012).

For this data set the following is noted: following oral administration.

As for `CC(C)(C)C(=O)Oc1ccc(C[C@H](N)C(=O)O)cc1O` [NB-355], the “Duration of circulating levodopa” value is “prolonged” and the “Plasma concentrations of levodopa” value is “low”.
